# Laboratory results reported in patent publication US10004815B2, “Near-infrared quenching group” (priority 2013, dated 2018).
# How the values were obtained:
# Assay type in all cases: physicochemical
# [1] = Absorption spectrum measurement; details: for maximum absorption wavelength: PBS (1% DMSO); for Λabs. max: 0.1% DMSO as cosolvent
# Protocol: The absorption spectrum of a […] PBS solution of comparative compound 2 (containing 0.1% DMSO as cosolvent) was measured.
# The maximum absorption wavelength of compound 1 was 763 nm, and the maximum absorption wavelength of compound 4 was 732 nm.
# [2] = Fluorescence spectrum / quantum efficiency of fluorescence (ICG in DMSO as standard); details: both water and organic solvents; excitation 760 nm
# Protocol: The absorption spectra and fluorescence spectra (excitation wavelength 760 nm) of […] PBS, methanol, DMF, and chloroform solutions of comparative compound 1 (each containing 0.1% DMSO as cosolvent) were measured.
# [3] = Changes over time in the absorption spectrum in water (PBS); details: PBS solution, 0.1% DMSO as cosolvent
smiles,measurement,setting,value
"Cc1cccc(C)c1C1=C2C=C/C(=[N+]3/CCCc4cc(S(=O)(=O)O)ccc43)C=C2[Si](C)(C)c2cc(N3CCCc4cc(S(=O)(=O)O)ccc43)ccc21 [compound 4, 2,6-diMe-SO3H Tetrahydroquinoline-Si-QSY21]",maximum absorption wavelength,[1],732 nm
"Cc1ccccc1C1=C2C=C/C(=[N+]3/CCc4ccccc43)C=C2[Si](C)(C)c2cc(N3CCc4ccccc43)ccc21 [comparative compound 1, 2-Me-Si-QSY21]",absorption spectrum reached up to,[1],up to 850 nm
same,Λabs. max,[1]; Chloroform,790 nm
same,Λabs. max,[1]; DMF,790 nm
same,Λabs. max,[1]; MeOH,779 nm
same,Λabs. max,[1]; PBS,764 nm
same,fluorescence quantum yield,[2],≤ 0.001
"Cc1cccc(C)c1C1=C2C=C/C(=[N+]3/CCc4cc(S(=O)(=O)O)ccc43)C=C2[Si](C)(C)c2cc(N3CCc4cc(S(=O)(=O)O)ccc43)ccc21 [compound 1, 2,6-diMe-SO3H Indoline-Si-QSY21]",maximum absorption wavelength,[1],763 nm
same,changes over time in absorption in water (stability in water),[3],no decrease in absorption in water was observed
"Cc1ccccc1C1=C2C=C/C(=[N+]3/CCc4cc(S(=O)(=O)O)ccc43)C=C2[Si](C)(C)c2cc(N3CCc4cc(S(=O)(=O)O)ccc43)ccc21 [comparative compound 2, 2-Me-SO3H—Si-QSY21]",change in absorption wavelength due to introduction of a sulfone group,"[1]; PBS solution, 0.1% DMSO",no change in absorption wavelength
same,changes over time in absorption in water (stability in water),[3],a gradual decrease in absorption was observed in water
"COc1cccc(OC)c1C1=C2C=C/C(=[N+]3/CCc4cc(S(=O)(=O)O)ccc43)C=C2[Si](C)(C)c2cc(N3CCc4cc(S(=O)(=O)O)ccc43)ccc21 [compound 2, 2,6-diOMe-SO3H Indoline-Si-QSY21]",changes over time in absorption in water (stability in water),[3],no decrease in absorption in water was observed
